Reference: patent publication US6605639B1, “Ligands of nuclear receptor” (Nuclear Receptor Research, Ltd., priority 1998, dated 2003)
Several values for one entry are separate records, joined by “and”; a condition that tells them apart may be missing. Identical values can stand only once.

How the values were obtained:
[1] = system: Japanese quails; experiment: Inhibition of arteriosclerosis in Japanese quails fed 1% cholesterol feed; type: in vivo, Japanese quail; parameters: key to Atheroma formation in arcuate aorta, grade of individual birds: 0: no atheroma.; I: coated with atheroma at a ratio of 1 to 10% of the total area.; II: coated with atheroma at a ratio of 11 to 40% of the total area.; III: coated with atheroma at a ratio of 41 to 70% of the total area.; IV: coated with atheroma at a ratio of 71 to 100% of the total area; settings: 9 months; for Atheroma formation in arcuate aorta, grade of individual birds: individuals I-VIII; for decrease of serum cholesterol level / decrease of serum neutral fat level: vs high cholesterol feed control; for Serum neutral fat / Serum total cholesterol: Mean ± SE
Experimental: When fed with a high fat diet, birds also show the onset of arteriosclerosis within a short period of time. Then 32 adult Japanese quails aged about 30 days were divided into 4 groups at random. […] The feed was prepared by adding 1% of cholesterol to a powdery protein-rich standard fed for chick and molding the mixture into pellets. Compound-6 was added in an amount of 0.16% or 0.0025% to the powdery feed and then the mixture was molded into pellets. The experiment was carried out for 9 months. During this period, the birds were allowed to take the feed and drinking water ad libitum. The feed employed in this experiment contained less fat, compared with the feed employed in the experiments with white rabbits, and was free from bile acid promoting the absorption of cholesterol from the digestive tract.
After 9 months, blood was collected and the serum total cholesterol level and the neutral fat level were measured. […] Each bird was dissected and the aorta was taken out. Then the severity was scored in 5 grades based on the ratio of atheroma to the total endosporium area and thickening of the arterial wall.

[2] = system: rats given streptozotocin; experiment: Relief of onset of streptozotocin-induced diabetes; type: in vivo, rat; settings: male Wistar rats, streptozotocin 45 mg/kg i.v.; 20 mg/kg/day oral, 10 days; Mean ± SE
Experimental: Eighteen male Wistar rats weighing about 200 g were divided into 3 groups at random. To the animals of 2 groups, 45 mg/kg of streptozotocin was intravenously administered. One of these groups was regarded as a control group, while the other was regarded as the Compound-6 administration group. To the remaining 1 group which was regarded as the normal control group, a 1/10 M citrate buffer (pH 3.5) […] was intravenously administered. Immediately after the administration of streptozotocin, a suspension of Compound-6 in acacia was orally administered once a day continuously for 10 days in a dose of 20 mg/kg/day. To other groups, an acacia solution alone was administered. After fasting for 6 hours after the final administration, blood was collected from the heart of each animal and the blood glucose level and the blood insulin level were measured. As the data given in Table 7a show, the oral administration of Compound-6 inhibited an increase in the blood glucose level and a decrease in the blood insulin level.
Eighteen male SD rats weighing about 250 g were divided into 3 groups at random. […] To the normal control group and the streptozotocin control group, the acacia solution alone was administered orally. After fasting for 6 hours after the final administration, blood was collected from the heart of each animal and the blood glucose level and the blood insulin level were measured. As the data given in Table 7b show, the oral administration of Compound-5 inhibited an increase in the blood glucose level and a decrease in the blood insulin level.

[3] = system: male Wistar rats; experiment: Sterol balance and bile acid excretion in rats; type: in vivo, rat; settings: 10 mg/kg oral once a day
Experimental: Feed-origin cholesterol and neutral sterol and acidic sterol in the feces of rats, to which the compounds of the present invention had been administered, were determined to monitor sterol balance and changes in the bile acid composition in feces. […] Further, the bile was sampled with the passage of time from rats having been subjected to cholangiostomy and bile acids thereof were determined. […] Male Wistar rats weighting about 250 g were divided into groups each having 6 to 8 animals. […] […] The feces were collected on the days 6 and 10. Then sterols were extracted therefrom in a conventional manner, acidic sterols and neutral sterols were determined. On the other hand, cholesterol in the feed was also determined so as to calculate the amount of feed-origin sterol.

[4] = system: patients suffered from noninsulin dependent diabetes (type II); experiment: Phase II clinical test; type: in vivo, human; settings: for Fasting blood glucose level, Decrease / Serum total cholesterol level, Decrease / Fasting blood glucose level / Serum total cholesterol level: 360 mg/day; for Fasting blood glucose level / Serum total cholesterol level: n = 30, Mean ± SE; for Boredom No, number of patients / Boredom Yes, number of patients: total 15; for Neuralgia No, number of patients / Neuralgia Yes, number of patients: total 16; for Feebleness No, number of patients / Feebleness Yes, number of patients: total 25
Experimental: A phase II clinical test of Compound-6 involving 30 patients suffered from noninsulin dependent diabetes (type II) was carried out. Compound-6 was administered in a daily dose of 6 mg/kg (i.e., administration of two tablets weighing 60 mg after each meal). The administration was continued for 12 weeks.
The facts clarified by this test are as follows.
The 30 patients with type II diabetes were inquired about thirsty and evaluated in 4 grades, namely, (+++) very strongly thirsty; (++) strongly thirsty; (+) thirsty; and (−) not thirsty. […] The treatment ratio amounted to 100%.

COc1c(Cl)c(C)c(C=O)c(O)c1C/C=C(C)/C=C/[C@@]1(C)[C@H](C)CCC(=O)[C@@H]1C [Compound-6, 4-O-methylASC]
occurrence of atheroma ([1]; High-dose group (0.16%)): no atheroma
Atheroma formation in arcuate aorta, grade of individual birds ([1]; High-dose group (0.16%)): 0
Atheroma severity score, Average ([1]; High-dose group (0.16%), n = 8): 0.00 ± 0.00
decrease of serum cholesterol level ([1]; High-dose group): 40%
decrease of serum neutral fat level ([1]; High-dose group): 40%
Serum neutral fat, change vs control ([1]; High-dose, 0.16% in feed): −40.0%
Serum total cholesterol, change vs control ([1]; High-dose, 0.16% in feed): −40.4%
Serum neutral fat ([1]; High-dose, 0.16% in feed): 392.6 ± 46.5 mg/dL
Serum total cholesterol ([1]; High-dose, 0.16% in feed): 1200 ± 136 mg/dL
fraction of the birds with atheroma ([1]; Low-dose group (0.0025%)): ½
Atheroma formation in arcuate aorta, grade of individual birds ([1]; Low-dose group (0.0025%)): 0 (4×) and I (coated with atheroma at a ratio of 1 to 10% of the total area.) (4×)
decrease of serum cholesterol level ([1]; Low-dose group): 25.5%
decrease of serum neutral fat level ([1]; Low-dose group): 21.6%
Serum neutral fat, change vs control ([1]; Low-dose, 0.0025% in feed): −21.6%
Serum total cholesterol, change vs control ([1]; Low-dose, 0.0025% in feed): −25.5%
Serum neutral fat ([1]; Low-dose, 0.0025% in feed): 513.1 ± 39.2 mg/dL
Serum total cholesterol ([1]; Low-dose, 0.0025% in feed): 1499 ± 120 mg/dL
Blood glucose [2]: 277.2 ± 52.44 mg/dL
Serum IRI [2]: 12.3 ± 1.65 mU/ml
Serum total cholesterol ([3]; Standard feed): 65.0 ± 2.98 mg/dL
Sterol Excretion ([3]; Standard feed): 10.81 mg/200 g wt.
Sterol balance ([3]; Standard feed): -2.26 mg
Serum total cholesterol ([3]; feed containing cholesterol): 77.0 ± 2.19 mg/dL
Sterol Excretion ([3]; feed containing cholesterol): 275.52 mg/200 g wt.
Sterol balance ([3]; feed containing cholesterol): +25.93 mg
Fasting blood glucose level, Decrease ([4]; 4th week): 12.37%
Serum total cholesterol level, Decrease ([4]; 4th week): 16.6%
Fasting blood glucose level ([4]; 4th week): 165 ± 4.3 mg/dL
Serum total cholesterol level ([4]; 4th week): 265 ± 4.4 mg/dL
Boredom No, number of patients ([4]; 4th week): 5
Boredom Yes, number of patients ([4]; 4th week): 10
Neuralgia No, number of patients ([4]; 4th week): 9
Neuralgia Yes, number of patients ([4]; 4th week): 7
Feebleness No, number of patients ([4]; 4th week): 10
Feebleness Yes, number of patients ([4]; 4th week): 15
Fasting blood glucose level, Decrease ([4]; 8th week): 15.45%
Serum total cholesterol level, Decrease ([4]; 8th week): 24.3%
Fasting blood glucose level ([4]; 8th week): 159 ± 2.4 mg/dL
Serum total cholesterol level ([4]; 8th week): 240 ± 4.4 mg/dL
Boredom No, number of patients ([4]; 8th week): 13
Boredom Yes, number of patients ([4]; 8th week): 2
Neuralgia No, number of patients ([4]; 8th week): 10
Neuralgia Yes, number of patients ([4]; 8th week): 6
Feebleness No, number of patients ([4]; 8th week): 19
Feebleness Yes, number of patients ([4]; 8th week): 6
Fasting blood glucose level, Decrease ([4]; 12th week): 18.05%
Serum total cholesterol level, Decrease ([4]; 12th week): 27.2%
Fasting blood glucose level ([4]; 12th week): 154 ± 4.4 mg/dL
Serum total cholesterol level ([4]; 12th week): 231 ± 4.4 mg/dL
Boredom No, number of patients ([4]; 12th week): 15
Boredom Yes, number of patients ([4]; 12th week): 0
Neuralgia No, number of patients ([4]; 12th week): 14
Neuralgia Yes, number of patients ([4]; 12th week): 2
Feebleness No, number of patients ([4]; 12th week): 24
Feebleness Yes, number of patients ([4]; 12th week): 1
thirst, treatment ratio ([4]; 30 patients, 12 weeks): 100%
glucose tolerance (50 g of glucose orally loaded, fasting) ([4]; compared with the data before the administration): significantly ameliorated
blood pressure of patients with hypertension (7) or borderline hypertension (17) ([4]; human, in vivo): significantly lowered
lowering the serum neutral fat level ([4]; human, in vivo): little effect
urinary glucose, urine collected for 24 hours ([4]; human, in vivo): significantly reduced
